Experimental data from patent publication US20170165200A1, “COMPOSITION OF LIPID-BASED NANOPARTICLES FOR SMALL MOLECULES AND MACROMOLECULES” (University of North Texas Health Science Center, priority 2015, published 2017).

Assays:
PC12 cells = assay: Neurite outgrowth study; type: cell-based
Description: Neurite Outgrowth Study. It is important to maintain protein's activity after the formulation of the NPs. Thus, the inventors chose to measure the bioactivity of NGF HDL-mimicking NPs in PC12 cells for neurite outgrowth. They pre-coated a 6-well plate with rat tail collagen type I. They seeded PC12 cells at a density of 10000 cells/well to the pre-coated 6-well plate overnight to allow cells to attach on the plates. They diluted free NGF (10 μg/ml) and NGF HDL-mimicking NPs (10 μg/ml) with the culture medium to prepare various concentrations at 0.5, 1, 5, 10, 50, and 100 ng/ml using half-half dilution. Then, they added 100 μl of sample into each well of the plate and culture for 4 days. At day 4 they changed the medium to fresh medium containing the corresponding treatment and then continue the treatment for another 3 days. At day 7, they visualized cells by an inverted light microscope and take the imaging from each well at random spots under 10× magnification.

[1] = rat, in vivo, iv; cited from earlier work
[2] = In vitro release of NGF by dialysis in 5% BSA-PBS; type: physicochemical; settings: 5% BSA-PBS (pH 7), 37° C., first hour (n=4)
Description: In vitro release study. The release of NGF from NGF NPs (n=4) was studied using a dialysis method. The release medium was PBS (pH 7) containing 5% BSA to mimic the physiological condition in blood. Briefly, 200 μl NGF NPs and […] release medium were loaded into the dialysis tube (invco 300 kDa). Then the dialysis tube was placed into a 30 ml release medium and shaken at a 37° C. at 135 rpm. At the time intervals (1, 2, 4, 6, 8, 24, 48 and 72 hours), 100 μl of the release medium were withdrawn and replaced with an equal volume of fresh medium. The amounts of released NGF in the medium were analyzed by a NGF Sandwich ELISA kit. As a control, free NGF (n=4) was studied in parallel.

[3] = mice; cited from earlier work

Compound	neurite outgrowth (PC12 cells; day 7, concentration of NGF lower than 10 ng/ml)	neurite outgrowth (PC12 cells; day 7, treatment concentration higher than 10 ng/ml)	half-life [1]	NGF released [2] [%]	maximal tolerate dose of single dose [3] [mg/kg]
free NGF: Recombinant human NGF (nerve growth factor)	neurite outgrowth cannot be observed clearly	neurite outgrowth was clearly observed	about 5.4 min	83	–
CC(=O)O[C@@]12CO[C@@H]1C[C@H](O)[C@@]1(C)C(=O)[C@H](O)C3=C(C)[C@@H](OC(=O)[C@H](O)[C@@H](NC(=O)OC(C)(C)C)c4ccccc4)C[C@@](O)([C@@H](OC(=O)c4ccccc4)[C@H]21)C3(C)C [DTX, Docetaxel]	–	–	–	–	15 to 33
